Experimental data from patent US20250066348A1, “SMALL MOLECULE INHIBITORS OF UBIQUITIN SPECIFIC PROTEASE 1 (USP1) AND USES THEREOF” (INSILICO MEDICINE IP LIMITED, priority 2021, published 2025).

Key:
[1] = target: T1, Human recombinant USP1/UAF1 (Homo sapiens, UniProt O94782); experiment: Enzymatic assay, USP1/UAF1 with Ubiquitin Rhodamine 110; assay type: biochemical; details: 2 nM USP1/UAF1, 500 nM Ubiquitin Rhodamine 110, HEPES buffer pH 8.0, 15 minutes preincubation at RT
T1 construct: purchased R&D E-568-050; host or cells: baculovirus infected Sf21 cells
Protocol: Human recombinant USP1/UAF1 expressed in baculovirus infected Sf21 cells were used (R&D, E-568-050). Test compound and/or vehicle was incubated with 2 nM of USP1/UAF1 in modified HEPES buffer pH 8.0 for 15 minutes at RT. The reaction was initiated by addition of 500 nM of Ubiquitin Rhodamine 110 (R&D, U-555-050) for kinetic reading. Slope change of fluorescence intensity was read spectrofluorimetrically at 485 nm/535 nm. Dose response of test compounds or reference compound ML-323 was analyzed by nonlinear regression of GraphPad prism software.

MDA-MB-436 cells = experiment: MDA-MB-436 breast cancer cell proliferation assay (CellTiter-Glo); assay type: cell-based; details: Homo sapiens, 168 h, 7 days
Protocol: MDA-MB-436 cells were grown in Leibovitz's L-15 medium with 10 μg/ml insulin, 16 μg/ml glutathione, 10% FBS. Cells were passaged at subconfluence after trypsinization and maintained in incubators at 37° C. in a humidified atmosphere with 5% CO2.
Cell proliferation was determined using CellTiter-Glo® Luminescent Cell Viability Assay (Promega, #G7573). MDA-MB-436 cells were seeded in 384-well plates and allowed to attach for 24 h. Compounds were added into 384-well plate by ECHO, and incubated at 37 C° in a humidified atmosphere with 5% CO2. After 7 days, CellTiter-Glo was added into 384 well plates, contents were mixed on an orbital shaker at […] for 2 min before centrifuging the plate for 2 min at 1000 rpm. After incubation at RT for 30 min, luminescence was read on envision.

T1 sequence (O94782 whole entry): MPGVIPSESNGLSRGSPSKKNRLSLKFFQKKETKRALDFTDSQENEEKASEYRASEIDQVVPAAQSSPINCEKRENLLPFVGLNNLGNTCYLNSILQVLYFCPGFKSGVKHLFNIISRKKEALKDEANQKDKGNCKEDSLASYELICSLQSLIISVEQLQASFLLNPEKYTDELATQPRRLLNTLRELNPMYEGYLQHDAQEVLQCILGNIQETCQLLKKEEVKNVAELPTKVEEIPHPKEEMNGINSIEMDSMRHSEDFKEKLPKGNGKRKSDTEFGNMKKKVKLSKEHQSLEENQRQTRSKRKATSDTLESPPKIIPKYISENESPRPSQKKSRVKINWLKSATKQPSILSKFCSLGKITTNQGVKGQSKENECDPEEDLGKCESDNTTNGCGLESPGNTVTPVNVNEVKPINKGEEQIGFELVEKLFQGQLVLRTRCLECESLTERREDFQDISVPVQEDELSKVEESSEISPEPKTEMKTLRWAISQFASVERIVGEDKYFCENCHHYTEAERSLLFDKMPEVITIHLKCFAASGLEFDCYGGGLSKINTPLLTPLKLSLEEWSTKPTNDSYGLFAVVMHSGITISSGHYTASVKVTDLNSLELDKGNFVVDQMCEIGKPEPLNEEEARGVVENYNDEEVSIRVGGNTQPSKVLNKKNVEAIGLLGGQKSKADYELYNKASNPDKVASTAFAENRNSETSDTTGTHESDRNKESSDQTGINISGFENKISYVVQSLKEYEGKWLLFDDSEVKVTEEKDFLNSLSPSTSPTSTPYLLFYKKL
T1 sequence (Q8TAF3 whole entry partner): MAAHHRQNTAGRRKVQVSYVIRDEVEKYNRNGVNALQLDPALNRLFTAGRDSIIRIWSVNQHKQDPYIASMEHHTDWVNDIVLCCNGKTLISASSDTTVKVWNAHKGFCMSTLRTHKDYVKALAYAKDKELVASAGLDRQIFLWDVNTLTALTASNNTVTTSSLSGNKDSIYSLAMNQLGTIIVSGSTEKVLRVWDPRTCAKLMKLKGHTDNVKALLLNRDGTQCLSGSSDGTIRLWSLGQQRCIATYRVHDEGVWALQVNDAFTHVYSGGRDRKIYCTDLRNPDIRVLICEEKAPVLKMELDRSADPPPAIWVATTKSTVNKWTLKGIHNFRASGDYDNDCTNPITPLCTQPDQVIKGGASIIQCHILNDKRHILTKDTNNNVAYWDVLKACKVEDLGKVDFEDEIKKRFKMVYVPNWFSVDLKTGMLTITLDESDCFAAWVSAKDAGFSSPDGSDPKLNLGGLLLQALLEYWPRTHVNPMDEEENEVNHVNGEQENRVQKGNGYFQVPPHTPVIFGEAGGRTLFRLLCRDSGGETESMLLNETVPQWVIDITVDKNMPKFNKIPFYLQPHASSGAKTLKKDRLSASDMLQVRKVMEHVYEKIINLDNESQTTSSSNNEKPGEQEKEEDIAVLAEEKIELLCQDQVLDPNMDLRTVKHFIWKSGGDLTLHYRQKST

**Q.** With `COc1ncnc(C2CC2)c1-c1ncc2c(=O)n(C)n(Cc3ccc(-n4nc(C(F)(F)F)cc4C)cc3)c2n1` [Example 7, 6-(4-cyclopropyl-6-methoxypyrimidin-5-yl)-2-methyl-1-(4-(5-methyl-3-(trifluoromethyl)-1H-pyrazol-1-yl)benzyl)-1,2-dihydro-3H-pyrazolo[3,4-d]pyrimidin-3-one] as the compound, how does the IC50 [1] read?
**A.** The IC50 was 50 to 1000 nM.

**Q.** And the IC50 (MDA-MB-436 cells)?
**A.** Its IC50 is 50 to 1000 nM.

**Q.** What does the source list for `COc1ncnc(C2CC2)c1-c1ncc2cnn(CC34C5C6C3C3C4C5C63c3nc(C(F)(F)F)cn3C(C)C)c2n1` (stereo not drawn) [Example 11, 6-(4-cyclopropyl-6-methoxypyrimidin-5-yl)-1-((4-(1-isopropyl-4-(trifluoromethyl)-1H-imidazol-2-yl)cuban-1-yl)methyl)-1H-pyrazolo[3,4-d]pyrimidine]?
**A.** IC50 [1]: < 50 nM; IC50 (MDA-MB-436 cells): < 50 nM

**Q.** Which IC50 [1] does the source give for `COc1ncnc(C2CC2)c1-c1cnc2cnn(Cc3ccc(-n4nc(C(F)(F)F)cc4C)cc3)c2n1` [Example 3, 6-(4-cyclopropyl-6-methoxypyrimidin-5-yl)-1-(4-(5-methyl-3-(trifluoromethyl)-1H-pyrazol-1-yl)benzyl)-1H-pyrazolo[3,4-b]pyrazine] here?
**A.** Its IC50 is 1000 to 10000 nM.

**Q.** And the IC50 (MDA-MB-436 cells)?
**A.** The IC50 was 1000 to 10000 nM.

**Q.** What does the source list for `COc1ncnc(C2CC2)c1-c1ncc2cnn(CC34C5C6C3C3C4C5C63c3nc(C(F)(F)F)cn3C)c2n1` (stereo not drawn) [Example 10, 6-(4-cyclopropyl-6-methoxypyrimidin-5-yl)-1-((4-(1-methyl-4-(trifluoromethyl)-1H-imidazol-2-yl)cuban-1-yl)methyl)-1H-pyrazolo[3,4-d]pyrimidine]?
**A.** IC50 [1]: < 50 nM; IC50 (MDA-MB-436 cells): < 50 nM

**Q.** Which IC50 [1] does the source give for `COc1ncnc(C2CC2)c1-c1cc2c(cn1)cnn2Cc1ccc(-n2nc(C(F)(F)F)cc2C)nc1` [Example 12, 6-(4-cyclopropyl-6-methoxypyrimidin-5-yl)-1-((6-(5-methyl-3-(trifluoromethyl)-1H-pyrazol-1-yl)pyridin-3-yl)methyl)-1H-pyrazolo[4,3-c]pyridine] here?
**A.** Its IC50 is 50 to 1000 nM.

**Q.** Which IC50 [1] does the source give for `COc1ncnc(C2CC2)c1-c1cc2c(cnn2Cc2ccc(-n3nc(C(F)(F)F)cc3C)cc2)nn1` [Example 4, 6-(4-cyclopropyl-6-methoxypyrimidin-5-yl)-1-(4-(5-methyl-3-(trifluoromethyl)-1H-pyrazol-1-yl)benzyl)-1H-pyrazolo[4,3-c]pyridazine] here?
**A.** The IC50 was 1000 to 10000 nM.

**Q.** How did the IC50 [1] turn out when `COc1ncnc(C2CC2)c1-c1ncc2oc(=O)n(Cc3ccc(-n4nc(C(F)(F)F)cc4C)cc3)c2n1` [Example 8, 5-(4-cyclopropyl-6-methoxypyrimidin-5-yl)-3-(4-(5-methyl-3-(trifluoromethyl)-1H-pyrazol-1-yl)benzyl) oxazolo[4,5-d]pyrimidin-2 (3H)-one] was run?
**A.** The IC50 was 50 to 1000 nM.

**Q.** What about the IC50 (MDA-MB-436 cells) of the same compound?
**A.** The IC50 was 50 to 1000 nM.

**Q.** Which results are given for `COc1ncnc(C2CC2)c1-c1cn2c(Cc3ccc(-n4nc(C(F)(F)F)cc4C)cc3)nnc2cn1` [Example 5, 6-(4-cyclopropyl-6-methoxypyrimidin-5-yl)-3-(4-(5-methyl-3-(trifluoromethyl)-1H-pyrazol-1-yl)benzyl)-[1,2,4]triazolo[4,3-a]pyrazine]?
**A.** IC50 [1]: 1000 to 10000 nM; IC50 (MDA-MB-436 cells): > 10000 nM

**Q.** Which IC50 [1] does the source give for `COc1ncnc(C2CC2)c1-c1ncc2[nH]c(=S)n(Cc3ccc(-n4nc(C(F)(F)F)cc4C)cc3)c2n1` [Example 9, 2-(4-cyclopropyl-6-methoxypyrimidin-5-yl)-9-(4-(5-methyl-3-(trifluoromethyl)-1H-pyrazol-1-yl)benzyl)-7,9-dihydro-8H-purine-8-thione] here?
**A.** Its IC50 is 50 to 1000 nM.

**Q.** And the IC50 (MDA-MB-436 cells)?
**A.** Its IC50 is 50 to 1000 nM.

**Q.** For `COc1ncnc(C2CC2)c1-c1cn2c(Cc3ccc(-n4nc(C(F)(F)F)cc4C)cc3)ncc2cn1` [Example 2, 6-(4-cyclopropyl-6-methoxypyrimidin-5-yl)-3-(4-(5-methyl-3-(trifluoromethyl)-1H-pyrazol-1-yl)benzyl) imidazo[1,5-a]pyrazine], which IC50 [1] is on record?
**A.** The IC50 was 50 to 1000 nM.

**Q.** What about the IC50 (MDA-MB-436 cells) of the same compound?
**A.** The IC50 was 50 to 1000 nM.

**Q.** With `COc1ncnc(C2CC2)c1-c1cc2c(cn1)cnn2Cc1ccc(-n2nc(C(F)(F)F)cc2C)cc1` [Example 1, 6-(4-cyclopropyl-6-methoxypyrimidin-5-yl)-1-(4-(5-methyl-3-(trifluoromethyl)-1H-pyrazol-1-yl)benzyl)-1H-pyrazolo[4,3-c]pyridine] as the compound, how does the IC50 [1] read?
**A.** The IC50 was < 50 nM.

**Q.** And the IC50 (MDA-MB-436 cells)?
**A.** Its IC50 is 50 to 1000 nM.

**Q.** `COc1ncnc(C2CC2)c1-c1cnc2cnc(Cc3ccc(-n4nc(C(F)(F)F)cc4C)cc3)n2c1` [Example 6, 3-(4-cyclopropyl-6-methoxypyrimidin-5-yl)-6-(4-(5-methyl-3-(trifluoromethyl)-1H-pyrazol-1-yl)benzyl)imidazo[1,5-a]pyrimidine] was tested. Which IC50 [1] did it give?
**A.** The IC50 was > 10000 nM.
